How the values were obtained:
Assay in all cases: relative viability (nuclei count vs DMSO), 5 days (fraction); higher = more cells survive
RO-3306 + Phenformin = compound: C1=CC2=C(C=CC(=C2)C=C3C(=O)NC(=NCC4=CC=CS4)S3)N=C1 [RO-3306] + N=C(N)NC(=N)NCCc1ccccc1 [Phenformin] (partner 250 µM)
Summary of the method: (§1)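 Relative viability was taken as the ratio of nuclei in treated wells to nuclei in vehicle wells. Lung cancer cell lines in 1536-well plates received compounds by pin tool one day after seeding, either one drug alone or a fixed anchor-drug dose plus five library-drug doses (not always all listed) in √10 steps. Nuclei were counted on 4× images after 5 days of treatment, and values are medians of duplicate plates.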

RO-3306 + Decitabine = compound: C1=CC2=C(C=CC(=C2)C=C3C(=O)NC(=NCC4=CC=CS4)S3)N=C1 [RO-3306] + Nc1ncn([C@H]2C[C@H](O)[C@@H](CO)O2)c(=O)n1 [Decitabine] (partner 2 µM)
Summary of the method: as §1

[1] = compound: O=S(=O)(c1ccccc1)N(CC(F)(F)F)c1ccc(C(O)(C(F)(F)F)C(F)(F)F)cc1 + Nc1ncn([C@H]2C[C@H](O)[C@@H](CO)O2)c(=O)n1 [Decitabine] (partner 2 µM)
Summary of the method: as §1

RO-3306 + Linsitinib = compound: C1=CC2=C(C=CC(=C2)C=C3C(=O)NC(=NCC4=CC=CS4)S3)N=C1 [RO-3306] + C[C@]1(O)C[C@@H](c2nc(-c3ccc4ccc(-c5ccccc5)nc4c3)c3c(N)nccn32)C1 [Linsitinib] (partner 1 µM)
Summary of the method: as §1

Cell Line	relative viability (RO-3306 + Phenformin; first compound 0.01 µM)	relative viability (RO-3306 + Phenformin; first compound 0.03162 µM)	relative viability (RO-3306 + Phenformin; first compound 0.1 µM)	relative viability (RO-3306 + Phenformin; first compound 0.3162 µM)	relative viability (RO-3306 + Phenformin; first compound 1 µM)	relative viability (RO-3306 + Decitabine; first compound 0.01 µM)	relative viability (RO-3306 + Decitabine; first compound 0.03162 µM)	relative viability (RO-3306 + Decitabine; first compound 0.1 µM)	relative viability (RO-3306 + Decitabine; first compound 0.3162 µM)	relative viability (RO-3306 + Decitabine; first compound 1 µM)	relative viability ([1]; first compound 2.53 µM)	relative viability ([1]; first compound 8 µM)	relative viability (RO-3306 + Linsitinib; first compound 0.01 µM)	relative viability (RO-3306 + Linsitinib; first compound 0.03162 µM)	relative viability (RO-3306 + Linsitinib; first compound 0.1 µM)	relative viability (RO-3306 + Linsitinib; first compound 0.3162 µM)	relative viability (RO-3306 + Linsitinib; first compound 1 µM)	relative viability ([1]; first compound 0.8 µM)
PC-3 [JPC-3]	0.481	0.517	0.467	0.473	0.433	0.84	0.777	0.82	0.802	0.817	0.817	0.826	0.947	0.968	0.996	0.963	0.971	
COR-L23	0.475	0.391	0.455	0.409	0.435	0.342	0.405	0.487	0.446	0.394	0.439	0.461	1.02		0.866	0.938	1.06	0.428
ABC-1	0.238	0.222	0.268	0.27	0.232	0.953	0.904	0.828	1.03	1.06	1.02	1.05	0.906	0.58	0.697	0.907	0.792	
NCI-H1792	0.196		0.156	0.289	0.259	0.702		0.47	0.606	0.481	0.395	0.562	0.728		0.569	0.604	0.31	0.562
COR-L 105	0.499	0.386	0.417	0.517	0.429	0.652	0.607	0.596	0.623	0.658	0.679	0.649	1.08	0.912	0.923	1.08	0.861	0.63
NCI-H1915	0.405	0.31	0.358	0.348	0.377	0.245	0.262	0.252	0.239	0.251	0.281	0.29	1.16	1.11	1.08	1.08	1.07	0.287
PC-14	0.616	0.504	0.503	0.595	0.499	0.196	0.209	0.222	0.277	0.244	0.19	0.209	0.989	0.773	0.969	1.02	0.991	0.197
NCI-H2126	0.504	0.544	0.513	0.508	0.513	0.528	0.561	0.637	0.586	0.57	0.573	0.533	0.678	0.709	0.775	0.678	0.635	0.655
HARA	0.471	0.357	0.504	0.429	0.466	0.523		0.58	0.654	0.692		0.657	0.861	0.789	0.902	1.02	1.35	0.426
NCI-H23	0.734	0.762	0.737	0.745	0.668	0.338		0.334	0.341	0.301	0.28	0.352	0.774	0.443	0.633	0.514	0.569	0.292
NCI-H1793	0.346	0.347	0.397	0.366	0.315	0.415		0.403	0.49	0.493	0.384	0.4	1.1	0.624	0.931	1.05	1.01	0.262
LK-2	0.445		0.312	0.499	0.344	0.279	0.215	0.282	0.301	0.286	0.347	0.325	0.552	0.495	0.635	0.425	0.554	0.333
NCI-H358	0.363	0.265	0.282	0.289	0.239	0.204	0.208	0.216	0.206	0.182	0.19	0.129	0.827	0.642	0.656	0.892	0.517	
EKVX	0.245	0.196	0.218	0.217	0.22	0.298	0.277	0.385	0.322	0.29	0.286	0.209	1.13	0.678	1.07	1.21	0.78	0.405
NCI-H1755	0.65	0.62	0.63	0.622	0.544	0.73	0.739	0.728	0.706	0.707	0.765	0.829	1.05	1	1.02	0.995	1.09	0.781
NCI-H460	0.635	0.365	0.496	0.555	0.544	0.52	0.44	0.509	0.645	0.462	0.462	0.349	1.14		0.901	1.3	0.889	0.681
NCI-H2405	0.403	0.539	0.356	0.368	0.554	0.703	0.751	0.803	0.685	0.727	0.701	0.797	0.994	0.873	0.896	0.921	0.944	0.841
LU99A	0.973	0.698	0.769	0.869	0.79	1.21	0.702	0.915	0.926	1	0.863	0.834	0.561	0.489	0.515	0.525	0.495	0.876
